# Reference: ChEMBL document CHEMBL1134530, “Synthesis and biological activity of 7-oxo substituted analogues of 5-deaza-5,6,7,8-tetrahydrofolic acid (5-DATHF) and 5,10-dideaza-5,6,7,8-tetrahydrofolic acid (DDATHF)” (J Med Chem, 2001)
# Test system: CCRF-CEM
# Assay: Compound was tested for cytotoxic activity in CCRF-CEM Human Leukemia cells by in vitro cytotoxicity assay
# Type: functional, cell-based
row,SMILES,IC50
1,Nc1nc(O)c2c(n1)NCC(CCc1ccc(C(=O)NC(CCC(=O)O)C(=O)O)cc1)C2 (stereo not given),7 ng/mL
2,CN(CC1Cc2c(O)nc(N)nc2NC1=O)c1ccc(C(=O)NC(CCC(=O)O)C(=O)O)cc1 (stereo not given),> 20000 ng/mL
3,Nc1nc(O)c2c(n1)NC(=O)C(CCc1ccc(C(=O)NC(CCC(=O)O)C(=O)O)cc1)C2 (stereo not given),> 20000 ng/mL
4,Nc1nc(O)c2c(n1)NC(=O)C(CNc1ccc(C(=O)NC(CCC(=O)O)C(=O)O)cc1)C2 (stereo not given),> 20000 ng/mL
5,CN(Cc1cnc2nc(N)nc(N)c2n1)c1ccc(C(=O)N[C@@H](CCC(=O)O)C(=O)O)cc1 [METHOTREXATE],4 ng/mL
